Measurements from PMC4818757, “Small molecule inhibitors of the Dishevelled‐CXXC5 interaction are new drug candidates for bone anabolic osteoporosis therapy” (EMBO Molecular Medicine, 2016).
Entries after “also recorded” stand apart in the source; their conditions may differ.

Tests used:
[1] = system: mouse embryonic fibroblast (MEF) cells; assay: qRT-PCR of pathway-specific target genes in MEF cells (off-target); type: cell-based; conditions: 12 hours
Method: To evaluate off‐target effects of KY‐02327, we monitored the transcriptional regulation of target genes of major cell signaling pathways in KY‐02327‐treated mouse embryonic fibroblast (MEF) cells (Appendix Table S2 and Appendix Fig S5). […] However, the target genes of other pathways were unaffected by the treatment of KY‐02327 (Appendix Fig S5B‐J). […]
on mouse embryonic fibroblast cells for 12 hours. The mRNA level of pathway-specific target genes (Appendix Table S2) was measured by quantitative real-time […]
Data Information: The data are the mean ± s.d. (error bars), and significance was assessed using unpaired Student’s t-test. [n =3]

[2] = system: ex vivo‐cultured calvaria; assay: Ex vivo calvaria culture, thickness; type: cell-based, mouse; conditions: 7 days
Method: Figure 1 Identification and characterization of small molecules competing Dvl–CXXC5 binding in vitro • A A scheme for in vitro screening method of small molecules competing Dvl–CXXC5 binding. Briefly, purified Dvl PDZ domain was attached to the polystyrene surface of each well of 96‐well plates. Then, PolyR‐DBM (polyarginine‐conjugated Dvl binding motif tagged with FITC) (Kim et al, 2015) was added to each well and allowed to bind to the Dvl PDZ domain; 10 μM small‐molecule compound was added to each well, and the compounds competing with Dvl PZD‐PolyR‐DBM binding were measured by a microplate reader to screen the compounds reducing fluorescence signal. • B Screening results of compounds competing Dvl–CXXC5 interaction. […] The relative numbers of β‐catenin‐positive nuclei were counted (D). […] The calvaria thicknesses were measured from the images using Image Pro software (F). […] (error bars), and significance was assessed using unpaired Student's t‐test.
Figure 3 Effect of KY‐02061 on Wnt/β‐catenin pathway, osteoblast differentiation, and ex vivo‐cultured calvaria growth • A MC3T3E1 cells were transfected with pTOPFLASH together with pCMV‐β‐gal. […] The luciferase activities of whole‐cell lysates were measured and normalized with β‐galactosidase activities. […] The calvaria thicknesses were measured from the stained sections using Image Pro software (E). […]

primary calvaria cells = assay: β-catenin / Runx2 immunofluorescence in primary calvaria cells; type: cell-based, mouse
primary osteoblast cells = assay: ALP staining of primary calvaria (osteoblast) cells; type: cell-based, mouse; conditions: 4 days
Method: Figure 3 Effect of KY‐02061 on Wnt/β‐catenin pathway, osteoblast differentiation, and ex vivo‐cultured calvaria growth • A MC3T3E1 cells were transfected with pTOPFLASH together with pCMV‐β‐gal. After 24 h, the cells were treated with DMSO, KY‐02061 in DMSO, or 5 μM PolyR‐DBM for 2 days. The luciferase activities of whole‐cell lysates were measured and normalized with β‐galactosidase activities. (n = 3) • B Primary calvaria cells were isolated from the calvariae of 4‐day‐old mice (Manton et al, 2007) and treated with DMSO or KY‐02061 in DMSO for 4 days. ALP activity levels were visualized by ALP staining. • C Primary calvaria cells were treated with DMSO or 5 μM KY‐02061 in DMSO for 14 days. […] The calvaria thicknesses were measured from the stained sections using Image Pro software (E). […] (error bars), and significance was assessed using unpaired Student's t‐test.
MC3T3E1 cells and primary calvaria cells were maintained in supplemented α‐MEM. […] For quantitative real‐time PCR (qRT–PCR), total mRNAs were extracted using TRIzol (Invitrogen), complementary DNAs were prepared using Maxime PCR PreMix (iNtRON Biotechnology, Sungnam, Korea), and the qRT–PCRs were performed using SYBR Premix Ex Taq (TaKaRa, Shiga, Japan) in the StepOnePlus Real‐Time PCR machine (Thermo Fisher Scientific, Waltham, MA). […]

SMILES | mRNA levels of Wnt/β‐catenin target genes [1] | target genes of other pathways (off-target) [1] | increase of thickness of ex vivo‐cultured calvaria compared with DMSO‐treated control ([2]; 2 μM) | thickness of ex vivo‐cultured calvaria, dose dependence [2] | nuclear accumulation of β‐catenin (primary calvaria cells; 2 μM, 2 days) | levels of Runx2 and β‐catenin (primary calvaria cells; 5 μM, 14 days) | Alkaline phosphatase (ALP) activity (primary osteoblast cells; 2 μM) | ALP activity, dose dependence (primary osteoblast cells)
CCOC(=O)c1cc2cc(O)ccc2n1CC(=O)NCCN1CCCCC1 [KY‐02327] | significantly increased | unaffected |  |  |  |  |  | 
CCOC(=O)Cn1c(C(=O)OCC)cc2cc(OS(=O)(=O)c3ccc(C)cc3)ccc21 [KY‐02061] |  |  | 51.2% | increased | strong accumulation | increased levels | increased; also recorded: strongest increase | increased in a dose‐dependent manner
